Converted amounts (≈) assume the structure as drawn.

The results in this text go back to EPA's ToxValDB 9.5 (doi:10.2903/j.efsa.2008.138r).

For data set [1], the system named is Aphidius rhopalosiphi. The following applies: not reported; reproduction.
The next data set has as its system Apis mellifera. To be noted: acute; duration: 48 hours; oral; unspecified; mortality.
A further data set deals with Beta vulgaris. The following applies: acute; duration: 14 days; other.
In the next data set the test system is Bibionidae. To be noted: chronic/long-term; duration: 21 days; other.
A further data set relates to Canidae. The following applies: chronic; duration: 1 years; oral; Dog Other; clinical chemistry.
The next data set concerns Colinus virginianus. The following applies: for LD50: acute, oral, mortality.
The test system of another data set is Daphnia magna. The following applies: chronic/long-term; duration: 21 days; reproduction.
In the next data set the test system is Mus musculus. To be noted: chronic; duration: 18 months; histopathology: neoplastic.
In a further data set the test system is Oncorhynchus mykiss. The following applies: acute; duration: 96 hours; mortality.
The next data set deals with Pleurozium sp. The following applies: acute; duration: 72 hours; biomass.
Data set [2] deals with Aphidius rhopalosiphi. The experiment in a line: LR50; higher = less toxic. The following applies: not reported; mortality.

A word on the NOAEL: it is the highest dose or exposure tested at which no adverse effect was seen. Turning to `Fc1ccc([C@@]2(Cn3cncn3)O[C@@H]2c2ccccc2Cl)cc1` [Epoxiconazole], the LEL amounted to 246 g/ha in the data set with Aphidius rhopalosiphi [1] and 250 g/ha in the data set on Beta vulgaris. The LD50 with Apis mellifera was over 83 µg/piece; in the data set with Colinus virginianus (diet), over 5000 mg/kg; with Colinus virginianus, over 2000 mg/kg; in the data set on Rattus norvegicus (acute, oral, mortality) it was 3160 mg/kg. Besides, the NOEC in the data set on Bibionidae came to 0.0625 mg/L; in the data set on Daphnia magna it was 0.63 mg/L; in the data set with Pleurozium sp., 0.0078 mg/L; with Tagia sp. (chronic/long-term, reproduction), 0.167 mg/kg. The NOAEL in the data set on Canidae was 1.6 mg/kg-day; with Mus musculus, 0.8 mg/kg-day; with Rattus norvegicus (reproduction developmental, reproduction), 2.3 mg/kg-day. This compound returned an NOEL in the data set on Colinus virginianus (reproduction developmental) of 1 mg/kg-day. In addition, the LC50 in the data set on Oncorhynchus mykiss was 3.14 µg/mL (≈ 9.52 µM); in the data set with Tagia sp. (acute, duration: 14 days, mortality) it was over 1000 mg/kg. This compound also displayed an LR50 in the data set with Aphidius rhopalosiphi [2] of over 246 g/ha.
